Each block holds one molecule with its values, some of them ahead of it.
Legend:
[1] = target: T1, Serine/threonine-protein kinase tousled-like 1 (Homo sapiens) (UniProt Q9UKI8); experiment: Inhibition of human recombinant TLK1 at 500 nM related to control ULK1
T1 sequence (whole entry): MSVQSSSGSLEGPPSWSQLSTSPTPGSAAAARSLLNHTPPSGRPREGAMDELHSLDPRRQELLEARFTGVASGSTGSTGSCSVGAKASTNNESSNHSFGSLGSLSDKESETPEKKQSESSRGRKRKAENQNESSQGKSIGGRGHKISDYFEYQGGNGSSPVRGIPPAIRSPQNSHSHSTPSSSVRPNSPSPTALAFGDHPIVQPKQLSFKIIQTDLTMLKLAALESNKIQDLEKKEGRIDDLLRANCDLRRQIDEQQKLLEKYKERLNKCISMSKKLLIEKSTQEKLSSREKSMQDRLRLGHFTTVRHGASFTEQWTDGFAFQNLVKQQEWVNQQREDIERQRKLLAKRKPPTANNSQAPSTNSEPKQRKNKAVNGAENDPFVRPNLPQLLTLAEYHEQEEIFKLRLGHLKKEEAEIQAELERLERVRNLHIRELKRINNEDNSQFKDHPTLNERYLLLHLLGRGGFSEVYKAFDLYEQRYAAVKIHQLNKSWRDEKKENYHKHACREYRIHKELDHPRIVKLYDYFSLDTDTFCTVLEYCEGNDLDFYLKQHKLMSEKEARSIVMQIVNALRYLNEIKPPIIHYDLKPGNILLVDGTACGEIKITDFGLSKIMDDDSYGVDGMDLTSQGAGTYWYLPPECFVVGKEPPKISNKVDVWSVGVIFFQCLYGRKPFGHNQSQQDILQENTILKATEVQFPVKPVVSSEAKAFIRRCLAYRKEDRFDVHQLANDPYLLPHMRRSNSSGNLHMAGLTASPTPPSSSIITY

[2] = target: Protein-tyrosine kinase 2-beta (Homo sapiens) (UniProt Q14289); experiment: Inhibition of human recombinant PYK2 at 500 nM in presence of ATP by radiometric assay relative to control
Sequence of Protein-tyrosine kinase 2-beta (Homo sapiens) (Q14289 whole entry, looked up): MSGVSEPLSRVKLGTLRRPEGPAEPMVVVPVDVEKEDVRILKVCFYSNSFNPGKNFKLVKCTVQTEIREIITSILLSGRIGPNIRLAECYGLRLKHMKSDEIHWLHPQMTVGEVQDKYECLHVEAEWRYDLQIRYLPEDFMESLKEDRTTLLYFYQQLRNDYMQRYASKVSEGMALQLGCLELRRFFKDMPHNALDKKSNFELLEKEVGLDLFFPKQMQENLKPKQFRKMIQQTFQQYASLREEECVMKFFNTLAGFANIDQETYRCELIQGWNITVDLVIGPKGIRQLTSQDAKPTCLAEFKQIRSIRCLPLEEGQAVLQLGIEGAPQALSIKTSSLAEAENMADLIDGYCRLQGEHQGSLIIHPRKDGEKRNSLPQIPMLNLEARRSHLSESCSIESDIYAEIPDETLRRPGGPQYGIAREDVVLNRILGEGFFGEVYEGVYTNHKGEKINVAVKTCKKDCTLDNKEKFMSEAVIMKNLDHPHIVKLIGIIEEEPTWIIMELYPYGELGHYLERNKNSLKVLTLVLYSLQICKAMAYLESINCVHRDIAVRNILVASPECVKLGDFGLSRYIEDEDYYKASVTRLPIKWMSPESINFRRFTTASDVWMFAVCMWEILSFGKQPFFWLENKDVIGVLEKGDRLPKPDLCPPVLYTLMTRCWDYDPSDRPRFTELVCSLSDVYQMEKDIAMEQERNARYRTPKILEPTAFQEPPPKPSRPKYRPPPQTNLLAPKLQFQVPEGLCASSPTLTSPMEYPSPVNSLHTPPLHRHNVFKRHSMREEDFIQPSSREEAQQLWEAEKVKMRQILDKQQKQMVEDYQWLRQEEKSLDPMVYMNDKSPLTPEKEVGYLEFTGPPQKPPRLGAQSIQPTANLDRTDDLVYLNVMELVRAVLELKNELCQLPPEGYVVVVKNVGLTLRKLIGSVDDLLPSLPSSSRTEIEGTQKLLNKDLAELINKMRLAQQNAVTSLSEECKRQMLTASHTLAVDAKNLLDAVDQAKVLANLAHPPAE

[3] = target: Dual specificity tyrosine-phosphorylation-regulated kinase 1B (Homo sapiens) (UniProt Q9Y463); experiment: Inhibition of human recombinant DYRK1B at 500 nM related to control ULK1
Sequence of Dual specificity tyrosine-phosphorylation-regulated kinase 1B (Homo sapiens) (Q9Y463 whole entry, looked up): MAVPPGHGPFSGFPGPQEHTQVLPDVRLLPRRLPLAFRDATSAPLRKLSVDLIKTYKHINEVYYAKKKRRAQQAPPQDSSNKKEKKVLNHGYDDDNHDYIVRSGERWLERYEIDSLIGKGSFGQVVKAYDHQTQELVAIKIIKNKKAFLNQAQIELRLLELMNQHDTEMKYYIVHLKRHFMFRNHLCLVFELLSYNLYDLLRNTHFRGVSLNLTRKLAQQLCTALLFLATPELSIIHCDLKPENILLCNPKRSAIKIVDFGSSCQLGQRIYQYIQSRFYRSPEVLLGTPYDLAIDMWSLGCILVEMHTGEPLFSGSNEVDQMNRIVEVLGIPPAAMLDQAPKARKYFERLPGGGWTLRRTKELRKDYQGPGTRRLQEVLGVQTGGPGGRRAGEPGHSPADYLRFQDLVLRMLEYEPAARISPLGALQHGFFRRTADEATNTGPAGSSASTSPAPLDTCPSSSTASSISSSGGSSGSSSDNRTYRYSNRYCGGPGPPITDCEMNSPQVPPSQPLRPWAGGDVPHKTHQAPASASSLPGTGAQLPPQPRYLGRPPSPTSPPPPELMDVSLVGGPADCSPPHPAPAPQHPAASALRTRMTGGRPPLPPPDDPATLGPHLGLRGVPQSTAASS

[4] = target: T2, Serine/threonine-protein kinase Sgk1 (Homo sapiens) (UniProt O00141); experiment: Inhibition of human recombinant SGK1 at 500 nM related to control ULK1
T2 sequence (whole entry): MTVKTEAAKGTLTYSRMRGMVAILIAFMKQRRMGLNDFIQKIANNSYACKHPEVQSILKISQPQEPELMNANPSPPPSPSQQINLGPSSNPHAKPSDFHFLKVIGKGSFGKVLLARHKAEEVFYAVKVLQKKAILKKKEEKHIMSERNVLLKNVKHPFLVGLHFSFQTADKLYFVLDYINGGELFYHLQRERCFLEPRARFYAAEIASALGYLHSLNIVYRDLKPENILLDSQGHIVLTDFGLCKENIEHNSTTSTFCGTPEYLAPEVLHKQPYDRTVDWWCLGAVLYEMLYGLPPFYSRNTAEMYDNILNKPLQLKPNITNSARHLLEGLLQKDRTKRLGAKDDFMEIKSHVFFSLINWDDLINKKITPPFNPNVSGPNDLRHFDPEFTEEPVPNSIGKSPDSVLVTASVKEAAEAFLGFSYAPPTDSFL

[5] = target: Tyrosine-protein kinase Fgr (Homo sapiens) (UniProt P09769); experiment: Inhibition of human recombinant FGR at 15 nM related to control ULK1
Sequence of Tyrosine-protein kinase Fgr (Homo sapiens) (P09769 2-529 limits assumed): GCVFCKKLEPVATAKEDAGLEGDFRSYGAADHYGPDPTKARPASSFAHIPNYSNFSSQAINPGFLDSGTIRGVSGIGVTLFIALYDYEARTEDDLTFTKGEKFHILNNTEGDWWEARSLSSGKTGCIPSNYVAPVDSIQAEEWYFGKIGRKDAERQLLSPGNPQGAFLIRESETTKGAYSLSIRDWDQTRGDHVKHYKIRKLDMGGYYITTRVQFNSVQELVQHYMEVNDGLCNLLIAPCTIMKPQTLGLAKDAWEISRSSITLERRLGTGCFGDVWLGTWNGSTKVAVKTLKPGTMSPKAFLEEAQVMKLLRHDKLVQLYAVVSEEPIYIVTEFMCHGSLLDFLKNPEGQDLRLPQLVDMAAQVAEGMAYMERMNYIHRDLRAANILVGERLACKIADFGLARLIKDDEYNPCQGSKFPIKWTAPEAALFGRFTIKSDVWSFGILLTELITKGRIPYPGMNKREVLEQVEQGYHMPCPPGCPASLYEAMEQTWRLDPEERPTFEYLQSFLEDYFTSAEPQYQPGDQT

[6] = target: T3, Eukaryotic translation initiation factor 2-alpha kinase 3 (Homo sapiens) (UniProt Q9NZJ5); experiment: Inhibition of human recombinant PEK at 15 nM in presence of ATP by radiometric assay relative to control
T3 sequence (whole entry): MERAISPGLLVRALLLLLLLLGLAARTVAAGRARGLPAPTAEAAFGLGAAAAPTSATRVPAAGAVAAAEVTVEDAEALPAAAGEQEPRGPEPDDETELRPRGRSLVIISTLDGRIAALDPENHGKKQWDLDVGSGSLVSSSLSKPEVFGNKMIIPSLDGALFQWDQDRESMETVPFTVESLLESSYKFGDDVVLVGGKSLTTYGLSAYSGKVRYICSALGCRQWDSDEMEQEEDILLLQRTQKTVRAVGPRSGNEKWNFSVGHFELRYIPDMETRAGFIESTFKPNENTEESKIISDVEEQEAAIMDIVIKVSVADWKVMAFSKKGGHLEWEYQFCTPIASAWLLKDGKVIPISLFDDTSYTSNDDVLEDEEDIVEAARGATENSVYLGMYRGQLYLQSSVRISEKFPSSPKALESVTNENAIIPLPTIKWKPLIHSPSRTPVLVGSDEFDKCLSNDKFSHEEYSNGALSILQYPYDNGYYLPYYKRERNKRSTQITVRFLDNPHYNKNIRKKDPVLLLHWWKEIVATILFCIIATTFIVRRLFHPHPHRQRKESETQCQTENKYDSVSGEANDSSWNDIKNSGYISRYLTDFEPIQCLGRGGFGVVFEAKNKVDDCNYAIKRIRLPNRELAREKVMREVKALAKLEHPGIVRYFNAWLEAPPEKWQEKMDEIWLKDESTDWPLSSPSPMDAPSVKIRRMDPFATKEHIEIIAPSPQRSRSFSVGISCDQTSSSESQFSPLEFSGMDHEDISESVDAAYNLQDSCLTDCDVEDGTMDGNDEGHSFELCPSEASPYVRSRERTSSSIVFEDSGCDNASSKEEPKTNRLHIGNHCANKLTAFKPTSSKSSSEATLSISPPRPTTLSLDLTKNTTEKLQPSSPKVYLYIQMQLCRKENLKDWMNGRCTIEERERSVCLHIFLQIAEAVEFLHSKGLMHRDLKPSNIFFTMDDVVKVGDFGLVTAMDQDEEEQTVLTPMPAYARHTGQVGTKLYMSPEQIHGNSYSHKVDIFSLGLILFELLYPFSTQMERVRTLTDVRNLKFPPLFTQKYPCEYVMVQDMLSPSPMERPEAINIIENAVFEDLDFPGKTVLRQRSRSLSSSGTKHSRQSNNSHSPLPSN

[7] = target: Cyclin-dependent kinase 18 (Homo sapiens) (UniProt Q07002); experiment: Inhibition of human recombinant PCTAIRE3 at 40 nM in presence of ATP by radiometric assay relative to control
Sequence of Cyclin-dependent kinase 18 (Homo sapiens) (Q07002 whole entry): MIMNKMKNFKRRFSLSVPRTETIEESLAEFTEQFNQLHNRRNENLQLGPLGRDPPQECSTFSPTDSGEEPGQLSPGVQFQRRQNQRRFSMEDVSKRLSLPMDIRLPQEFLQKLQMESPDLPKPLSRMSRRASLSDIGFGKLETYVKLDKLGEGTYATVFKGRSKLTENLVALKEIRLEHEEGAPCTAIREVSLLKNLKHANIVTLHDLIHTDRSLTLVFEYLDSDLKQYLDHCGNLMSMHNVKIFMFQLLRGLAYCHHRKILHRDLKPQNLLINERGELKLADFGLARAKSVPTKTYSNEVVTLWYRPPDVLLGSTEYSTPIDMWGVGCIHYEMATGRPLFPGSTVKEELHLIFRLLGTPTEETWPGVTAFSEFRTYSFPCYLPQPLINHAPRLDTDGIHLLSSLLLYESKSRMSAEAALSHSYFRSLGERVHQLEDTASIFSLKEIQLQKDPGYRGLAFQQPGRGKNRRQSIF

fold change (FC) [1]: 0
inhibition [2]: 53%
fold change (FC) [3]: 0
fold change (FC) [4]: 0.03
SMILES: CNC(=O)c1ccccc1Oc1nc(Nc2cc(OC)c(OC)c(OC)c2)ncc1Br

fold change (FC) [5]: 0.49
inhibition [6]: 0%
SMILES: CC(C)[C@H](NC(=O)c1cc(-c2cnn3cc(-c4ccc(OCCN5CCCCC5)cc4)cnc23)cs1)C(F)(F)F

inhibition [7]: 31%
SMILES: O=C(N[C@@H](C1CC1)C(F)(F)F)c1cc(-c2cnn3cc(-c4ccc(F)cc4)cnc23)cs1

Reference: ChEMBL document CHEMBL5653631, “A Potent and Selective ULK1 Inhibitor Suppresses Autophagy and Sensitizes Cancer Cells to Nutrient Stress” (iScience, 2018)
